Data as given in ChEMBL document CHEMBL4680316, “JNK selective inhibitor, IQ-1S, protects the mice against lipopolysaccharides-induced sepsis” (2021).
The source made the active and inactive calls. No cut-off for these calls is given here.

Tests used:
[1] = system: BMDM; assay: Inhibition of JNK signalling in LPS-induced sepsis wild type C57BL/6 mouse BMDM cells assessed as reduction in IkappaBalpha phosphorylation at 1 uM pretreated for 1 hr by Western blot assay; assay type: cell-based
[2] = system: Mus musculus; assay: Antiinflammatory activity in wild type C57BL/6 mouse model of LPS and D-galactosamine-induced sepsis assessed as decrease in serum IL-6 level at 50 to 200 ug, ip administered 2 hrs after LPS and D-galactosamine administration and measured after 10 hrs of post LPS administration by ELISA; assay type: functional, organism-based; conditions: dose 50-200 µg, time 8.0 hrs
[3] = system: BMDM; assay: Induction of IL-4-induced polarization of C57BL/6 mouse BMDM cells to M2 assessed as Mrc mRNA expression at 1 uM pretreated for 1 hr by qRT-PCR analysis; assay type: functional, cell-based
[4] = system: Mus musculus; assay: Antiinflammatory activity in C57BL/6 mouse model of LPS-induced sepsis assessed as CD4 cells in spleen at 200 ug, iv administered 2 hrs after LPS administration and measured after 10 hrs of post LPS administration by flow cytometry analysis (reference value: 23.8 %); assay type: functional; conditions: dose 200 µg; time 8 hrs
[5] = system: BMDM; assay: Antiinflammatory activity in LPS-induced sepsis C57BL/6 mouse BMDM cells assessed as reduction in IL-6 secretion at 1 uM treated 1 hr before LPS stimulation and measured after 12 and 24 hrs by ELISA; assay type: functional, cell-based; conditions: time 12-24 hrs
[6] = system: BMDM; assay: Antiinflammatory activity in CpG-induced sepsis C57BL/6 mouse BMDM cells assessed as reduction in IL-6 secretion at 1 uM treated 1 hr before CpG stimulation and measured after 12 and 24 hrs by ELISA; assay type: functional, cell-based; conditions: time 12-24 hrs
[7] = system: BMDM; assay: Antiinflammatory activity in CpG-induced sepsis C57BL/6 mouse BMDM cells assessed as reduction in IL-1beta secretion at 1 uM treated 1 hr before CpG stimulation and measured after 12 and 24 hrs by ELISA; assay type: functional, cell-based; conditions: time 12-24 hrs
[8] = system: BMDM; assay: Inhibition of JNK signalling in LPS-induced sepsis wild type C57BL/6 mouse BMDM cells assessed as reduction in JNK-2 phosphorylation at 1 uM pretreated for 1 hr by Western blot assay; assay type: cell-based
[9] = system: BMDM; assay: Inhibition of JNK signalling in LPS-induced sepsis wild type C57BL/6 mouse BMDM cells assessed as reduction in p38 phosphorylation at 1 uM pretreated for 1 hr by Western blot assay; assay type: cell-based
[10] = system: BMDM; assay: Antiinflammatory activity in CpG-induced sepsis C57BL/6 mouse BMDM cells assessed as reduction in IL-6 mRNA expression at 1 uM treated 1 hr before CpG stimulation by qRT-PCR analysis; assay type: functional, cell-based
[11] = system: BMDM; assay: Antiinflammatory activity in LPS-induced sepsis C57BL/6 mouse BMDM cells assessed as reduction in IL-1beta secretion at 1 uM treated 1 hr before LPS stimulation and measured after 12 and 24 hrs by ELISA; assay type: functional, cell-based; conditions: time 12-24 hrs
[12] = system: Mus musculus; assay: Antiinflammatory activity in wild type C57BL/6 mouse model of LPS and D-galactosamine-induced sepsis assessed as decrease in serum TNF-alpha level at 50 to 200 ug, ip administered 2 hrs after LPS and D-galactosamine administration and measured after 10 hrs of post LPS administration by ELISA; assay type: functional, organism-based; conditions: dose 50-200 µg, time 8.0 hrs
[13] = system: BMDM; assay: Antiinflammatory activity in CpG-induced sepsis C57BL/6 mouse BMDM cells harboring JNK assessed as reduction in TNF mRNA expression at 1 uM pretreated for 1 hr by qRT-PCR analysis; assay type: functional, cell-based
[14] = system: BMDM; assay: Antiinflammatory activity in CpG-induced sepsis C57BL/6 mouse BMDM cells assessed as reduction in TNF-alpha secretion at 1 uM treated 1 hr before CpG stimulation and measured after 12 and 24 hrs by ELISA; assay type: functional, cell-based; conditions: time 12-24 hrs
[15] = system: BMDM; assay: Antiinflammatory activity in CpG-induced sepsis C57BL/6 mouse BMDM cells assessed as reduction in TNF-alpha mRNA expression at 1 uM treated 1 hr before CpG stimulation by qRT-PCR analysis; assay type: functional, cell-based
[16] = system: Mus musculus; assay: Antiinflammatory activity in wild type C57BL/6 mouse model of LPS and D-galactosamine-induced sepsis assessed as decrease in area of immune cells in lungs at 50 to 200 ug, ip administered 2 hrs after LPS and D-galactosamine administration and measured after 10 hrs of post LPS administration by H and E staining based imaging analysis; assay type: functional, organism-based; conditions: dose 50-200 µg, time 8.0 hrs
[17] = system: BMDM; assay: Antiinflammatory activity in LPS-induced sepsis C57BL/6 mouse BMDM cells assessed as reduction in IL-1beta mRNA expression at 1 uM treated 1 hr before LPS stimulation and measured after 2 and 6 hrs by qRT-PCR analysis; assay type: functional, cell-based; conditions: time 2-6 hrs
[18] = system: BMDM; assay: Antiinflammatory activity in LPS-induced sepsis C57BL/6 mouse BMDM cells assessed as reduction in IL-6 mRNA expression at 1 uM treated 1 hr before LPS stimulation and measured after 2 and 6 hrs by qRT-PCR analysis; assay type: functional, cell-based; conditions: time 2-6 hrs
[19] = system: BMDM; assay: Antiinflammatory activity in CpG-induced sepsis C57BL/6 mouse BMDM cells harboring JNK assessed as reduction in Nos2 mRNA expression at 1 uM pretreated for 1 hr by qRT-PCR analysis; assay type: functional, cell-based
[20] = system: BMDM; assay: Antiinflammatory activity in CpG-induced sepsis C57BL/6 mouse BMDM cells assessed as reduction in IL-1beta mRNA expression at 1 uM treated 1 hr before CpG stimulation by qRT-PCR analysis; assay type: functional, cell-based
[21] = system: Mus musculus; assay: Antiinflammatory activity in wild type C57BL/6 mouse model of LPS and D-galactosamine-induced sepsis assessed as survival of organism at 50 to 200 ug, iv administered 2 hrs before LPS and D-galactosamine administration and observed for 20 hrs; assay type: functional, organism-based; conditions: dose 50-200 µg, time 22.0 hrs
[22] = system: BMDM; assay: Antiinflammatory activity in LPS-induced sepsis C57BL/6 mouse BMDM cells assessed as reduction in TNF-alpha mRNA expression at 1 uM treated 1 hr before LPS stimulation and measured after 2 and 6 hrs by qRT-PCR analysis; assay type: functional, cell-based; conditions: time 2-6 hrs
[23] = system: Mus musculus; assay: Antiinflammatory activity in C57BL/6 mouse model of LPS-induced sepsis assessed as CD8+ cells in spleen at 200 ug, iv administered 2 hrs after LPS administration and measured after 10 hrs of post LPS administration by flow cytometry analysis (reference value: 13 %); assay type: functional; conditions: dose 200 µg; time 8 hrs
[24] = system: Mus musculus; assay: Antiinflammatory activity in C57BL/6 mouse model of LPS-induced sepsis assessed as neutrophils in spleen at 200 ug, iv administered 2 hrs after LPS administration and measured after 10 hrs of post LPS administration by flow cytometry analysis (reference value: 24.8 %); assay type: functional; conditions: dose 200 µg; time 8 hrs
[25] = system: Mus musculus; assay: Antiinflammatory activity in wild type C57BL/6 mouse model of LPS and D-galactosamine-induced sepsis assessed as decrease in serum IL-1beta level at 50 to 200 ug, ip administered 2 hrs after LPS and D-galactosamine administration and measured after 10 hrs of post LPS administration by ELISA; assay type: functional, organism-based; conditions: dose 50-200 µg, time 8.0 hrs
[26] = system: Mus musculus; assay: Antiinflammatory activity in C57BL/6 mouse model of LPS-induced sepsis assessed as macrophages in spleen at 200 ug, iv administered 2 hrs after LPS administration and measured after 10 hrs of post LPS administration by flow cytometry analysis (reference value: 9.69 %); assay type: functional; conditions: dose 200 µg; time 8 hrs
[27] = system: BMDM; assay: Inhibition of JNK signalling in LPS-induced sepsis wild type C57BL/6 mouse BMDM cells assessed as reduction in IKKbeta phosphorylation at 1 uM pretreated for 1 hr by Western blot assay; assay type: cell-based
[28] = system: BMDM; assay: Induction of IL-4-induced polarization of C57BL/6 mouse BMDM cells to M2 assessed as Arg mRNA expression at 1 uM pretreated for 1 hr by qRT-PCR analysis; assay type: functional, cell-based
[29] = system: BMDM; assay: Inhibition of JNK signalling in LPS-induced sepsis wild type C57BL/6 mouse BMDM cells assessed as reduction in AP-1 expression at 1 uM pretreated for 1 hr by Western blot assay; assay type: cell-based
[30] = system: BMDM; assay: Inhibition of JNK signalling in LPS-induced sepsis wild type C57BL/6 mouse BMDM cells assessed as reduction in NF-kappaB expression at 1 uM pretreated for 1 hr by Western blot assay; assay type: cell-based
[31] = system: BMDM; assay: Antiinflammatory activity in LPS-induced sepsis C57BL/6 mouse BMDM cells assessed as reduction in TNF-alpha secretion at 1 uM treated 1 hr before LPS stimulation and measured after 12 and 24 hrs by ELISA; assay type: functional, cell-based; conditions: time 12-24 hrs
[32] = system: BMDM; assay: Antiinflammatory activity in CpG-induced sepsis C57BL/6 mouse BMDM cells harboring JNK assessed as reduction in IL-6 mRNA expression at 1 uM pretreated for 1 hr by qRT-PCR analysis; assay type: functional, cell-based

`[Na+].[O-]/N=C1/c2ccccc2-c2nc3ccccc3nc21` was tested, and the inhibition [1] was “Active”, the Activity [2] was “Active” and the Activity [3] was “inactive”. For the same compound, the Activity [4] was 17.2%, the Activity [5] was “Active” and the Activity [6] was “Active”. The Activity [7] was “Active”, the inhibition [8] was “Active” and the inhibition [9] was “Active”. For the same compound, the Activity [10] was “Active”, the Activity [11] was “Active” and the Activity [12] was “Active”. The Activity [13] was “Active”, the Activity [14] was “Active” and the Activity [15] was “Active”. The Activity [16] was “Active”, the Activity [17] was “Active” and the Activity [18] was “Active”. For the same compound, the Activity [19] was “Active”, the Activity [20] was “Active” and the Activity [21] was “Active”. For the same compound, the Activity [22] was “Active”, the Activity [23] was 9.2% and the Activity [24] was 18.8%. For the same compound, the Activity [25] was “Active”, the Activity [26] was 8.6% and the inhibition [27] was “Active”. For the same compound, the Activity [28] was “inactive”, the inhibition [29] was “Active” and the inhibition [30] was “inactive”. The Activity [31] was “Active” and the Activity [32] was “Active”.
